The values below come from ChEMBL document CHEMBL3769313, “Synthesis, structural characterization, docking, lipophilicity and cytotoxicity of 1-[(1R)-1-(6-fluoro-1,3-benzothiazol-2-yl)ethyl]-3-alkyl carbamates, novel acetylcholinesterase and butyrylcholinesterase pseudo-irreversible inhibitors” (Bioorg Med Chem, 2016).

The source made the active and inactive calls. The calls are words filed in the database; no cut-off is given here.

One data set concerns the target Cholinesterase (Equus caballus, UniProt P81908). The data set is described as follows: Inhibition of equine serum BChE by spectrophotometric-based Ellman's method. In general terms: In Ellman's method for cholinesterases, released thiocholine reacts with DTNB.
The nature of data set [1]: n-Octanol-water partition coefficient, log P of the compound after 15 mins by shake flask method. The data set is classed as physicochemical.
Data set [2] has as its target Acetylcholinesterase (Electrophorus electricus, UniProt O42275). The data set is described as follows: Inhibition of electric eel AChE by spectrophotometric-based Ellman's method.
Data set [3] is described as follows: Selectivity ratio of IC50 for electric eel AChE to IC50 for equine serum BChE.
Data set [4] in a line: Cytotoxicity against human Jurkat cells assessed as cell viability at 100 uM after 48 hrs by XTT assay relative to control. Type of data set: cell-based. The following applies: read-out: Activity. (Tetrazolium dyes change colour on reduction, which living cells bring about.)
A short description of data set [5]: Cytotoxicity against human Jurkat cells assessed as cell viability at 250 uM after 48 hrs by XTT assay relative to control. The following applies: read-out: Activity. Type of data set: cell-based.
A short description of data set [6]: Cytotoxicity against human Jurkat cells assessed as cell viability at 1 uM after 48 hrs by XTT assay relative to control. Type of data set: cell-based. The conditions noted are these: read-out: Activity.
Data set [7] deals with Acetylcholinesterase (Electrophorus electricus) (UniProt O42275). The data set is described as follows: Potency index, ratio of rivastigmine IC50 to compound IC50 for electric eel AChE.
Data set [8] is described as follows: Cytotoxicity against human Jurkat cells assessed as cell viability at 10 uM after 48 hrs by XTT assay relative to control. The data set is classed as cell-based. The following applies: read-out: Activity.
Data set [9] deals with Acetylcholinesterase (Electrophorus electricus) (UniProt O42275). The data set can be described thus: Pseudo-irreversible inhibition of electric eel AChE at 4 to 8 uM by spectrophotometric-based Ellman's method.
Data set [10] is described as follows: Cytotoxicity against human Jurkat cells assessed as cell viability at 50 uM after 48 hrs by XTT assay relative to control. The data set is classed as cell-based. The conditions noted are these: read-out: Activity.
In data set [11] the test system is SK-BR-3. The data set is described as follows: Cytotoxicity against human SK-BR-3 cells assessed as decrease in cell proliferation index at 1 to 100 uM after 91 hrs by real-time cell analysis. The data set is classed as cell-based. The following applies: sk-br-3, 91 h.
The test system of data set [12] is SK-BR-3. The data set can be described thus: Cytotoxicity against human SK-BR-3 cells assessed as decrease in cell proliferation index at 250 uM by real-time cell analysis. The data set is classed as cell-based. The following applies: sk-br-3, 250 µM, TDE = time-dependent effect.
For data set [13], the target named is Acetylcholinesterase (Electrophorus electricus) (UniProt O42275). The data set is described as follows: Pseudo-irreversible inhibition of electric eel AChE at 5 to 9 uM by spectrophotometric-based Ellman's method.
For data set [14], the system named is SK-BR-3. The data set can be described thus: Cytotoxicity against human SK-BR-3 cells assessed as decrease in cell proliferation index at 250 uM after 91 hrs by real-time cell analysis. Type of data set: cell-based. The conditions noted are these: sk-br-3, 91 h.
Data set [15] concerns the target Acetylcholinesterase (Electrophorus electricus) (UniProt O42275). The conditions noted are these: 6 to 10 uM.
Description: Pseudo-irreversible inhibition of electric eel AChE at 6 to 10 uM by spectrophotometric-based Ellman's method
The target in data set [16] is Acetylcholinesterase (Torpedo californica, UniProt P04058). The data set is described as follows: Pseudo-irreversible inhibition of Torpedo californica AChE using acetylthiocholine as substrate by cornish bowden plot analysis. Further details: species or system Tetronarce californica.
Chain of Acetylcholinesterase (Torpedo californica, UniProt P04058) (P04058 whole entry): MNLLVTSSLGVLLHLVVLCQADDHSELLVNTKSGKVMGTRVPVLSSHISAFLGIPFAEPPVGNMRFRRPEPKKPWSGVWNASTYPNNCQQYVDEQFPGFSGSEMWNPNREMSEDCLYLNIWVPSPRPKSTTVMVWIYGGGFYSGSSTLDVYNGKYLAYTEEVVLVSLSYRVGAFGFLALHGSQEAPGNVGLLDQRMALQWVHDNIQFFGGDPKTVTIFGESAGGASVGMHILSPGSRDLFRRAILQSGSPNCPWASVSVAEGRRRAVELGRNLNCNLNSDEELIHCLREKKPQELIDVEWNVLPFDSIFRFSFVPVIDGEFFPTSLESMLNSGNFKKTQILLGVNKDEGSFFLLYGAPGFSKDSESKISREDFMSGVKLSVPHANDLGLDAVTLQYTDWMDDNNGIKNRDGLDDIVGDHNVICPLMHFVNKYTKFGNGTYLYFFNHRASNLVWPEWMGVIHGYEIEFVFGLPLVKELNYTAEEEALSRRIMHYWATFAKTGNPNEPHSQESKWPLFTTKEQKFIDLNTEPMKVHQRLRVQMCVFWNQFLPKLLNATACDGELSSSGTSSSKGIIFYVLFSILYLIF

Chain of Acetylcholinesterase (Electrophorus electricus, UniProt O42275) (O42275 whole entry): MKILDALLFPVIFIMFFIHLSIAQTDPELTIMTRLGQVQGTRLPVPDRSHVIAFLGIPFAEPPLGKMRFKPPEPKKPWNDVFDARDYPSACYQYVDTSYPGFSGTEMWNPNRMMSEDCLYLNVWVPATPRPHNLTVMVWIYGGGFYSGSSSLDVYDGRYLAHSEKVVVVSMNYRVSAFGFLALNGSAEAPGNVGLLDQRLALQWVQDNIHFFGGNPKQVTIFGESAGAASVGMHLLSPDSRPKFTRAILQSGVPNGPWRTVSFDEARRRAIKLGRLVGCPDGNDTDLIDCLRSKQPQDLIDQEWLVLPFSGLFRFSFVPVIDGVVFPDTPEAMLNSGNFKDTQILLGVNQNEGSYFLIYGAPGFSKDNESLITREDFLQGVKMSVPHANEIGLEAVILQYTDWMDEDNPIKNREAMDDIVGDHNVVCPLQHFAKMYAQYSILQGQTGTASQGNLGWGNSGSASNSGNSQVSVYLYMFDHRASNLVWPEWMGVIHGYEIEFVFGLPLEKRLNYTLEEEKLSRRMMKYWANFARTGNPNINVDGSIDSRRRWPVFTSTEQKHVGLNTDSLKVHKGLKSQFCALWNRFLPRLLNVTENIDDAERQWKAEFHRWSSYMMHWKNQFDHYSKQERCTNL
Chain of Cholinesterase (P81908 whole entry): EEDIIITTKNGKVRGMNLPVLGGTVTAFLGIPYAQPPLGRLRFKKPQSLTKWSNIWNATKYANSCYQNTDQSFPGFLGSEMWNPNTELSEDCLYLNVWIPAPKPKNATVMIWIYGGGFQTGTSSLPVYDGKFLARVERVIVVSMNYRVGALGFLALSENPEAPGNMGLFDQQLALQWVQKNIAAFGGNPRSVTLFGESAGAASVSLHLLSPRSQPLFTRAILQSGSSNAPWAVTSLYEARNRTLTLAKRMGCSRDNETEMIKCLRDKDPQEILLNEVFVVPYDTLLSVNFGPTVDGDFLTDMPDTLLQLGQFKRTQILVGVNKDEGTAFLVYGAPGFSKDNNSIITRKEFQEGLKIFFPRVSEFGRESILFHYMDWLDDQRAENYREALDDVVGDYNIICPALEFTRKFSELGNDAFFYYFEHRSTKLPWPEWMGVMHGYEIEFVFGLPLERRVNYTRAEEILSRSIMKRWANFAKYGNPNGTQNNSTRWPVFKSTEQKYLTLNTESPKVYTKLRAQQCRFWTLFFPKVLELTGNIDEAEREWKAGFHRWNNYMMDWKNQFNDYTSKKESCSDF
Chain of Acetylcholinesterase (Electrophorus electricus) (O42275 24-633 limits assumed): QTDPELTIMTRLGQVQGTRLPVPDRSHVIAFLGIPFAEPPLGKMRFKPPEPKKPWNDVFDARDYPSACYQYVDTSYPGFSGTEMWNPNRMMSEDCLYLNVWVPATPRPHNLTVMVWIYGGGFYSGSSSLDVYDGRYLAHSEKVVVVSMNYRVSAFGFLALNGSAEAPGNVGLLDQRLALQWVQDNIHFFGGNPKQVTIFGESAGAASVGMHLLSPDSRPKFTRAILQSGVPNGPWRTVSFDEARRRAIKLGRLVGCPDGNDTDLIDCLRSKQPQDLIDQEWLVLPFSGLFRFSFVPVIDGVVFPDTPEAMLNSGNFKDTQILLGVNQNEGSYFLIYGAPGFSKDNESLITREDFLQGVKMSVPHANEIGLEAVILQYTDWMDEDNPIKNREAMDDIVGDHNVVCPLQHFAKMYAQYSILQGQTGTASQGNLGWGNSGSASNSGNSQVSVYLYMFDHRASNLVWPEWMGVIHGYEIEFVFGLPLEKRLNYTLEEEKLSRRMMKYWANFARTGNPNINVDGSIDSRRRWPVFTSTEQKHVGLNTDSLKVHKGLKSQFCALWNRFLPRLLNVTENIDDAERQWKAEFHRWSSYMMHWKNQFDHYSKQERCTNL

For `COCCOC(=O)N[C@H](C)c1nc2ccc(F)cc2s1`, the IC50 against Cholinesterase came to 66.3 µM; on Acetylcholinesterase [2] it was 56.2 µM. Besides, the logP at 0.25 h in [1] was determined as 3.35. In addition, the Ratio IC50 in data set [3] stood at 0.85.
The matching figures for `CCCOC(=O)N[C@H](C)c1nc2ccc(F)cc2s1`: 34.6 µM, 13.1 µM, 4.56 and 0.38.
For the compound `CCOC(=O)N[C@H](C)c1nc2ccc(F)cc2s1`, in data set [4], the viability at 48 h, 100 µM is 85.6%. Moreover, the IC50 turned out to be 20.1 µM at Cholinesterase and 6.06 µM against Acetylcholinesterase [2]. The compound also gave a lipophilicity (logP) at 0.25 h in data set [1] of 4.2. Besides, the viability at 48 h, 250 µM in [5] worked out at 77%. Moreover, the viability at 48 h, 1 µM in data set [6] stood at 87.4%. Moreover, the Ratio IC50 was less than 10 in data set [7] and 0.3 in [3]. The viability at 48 h, 10 µM in [8] amounted to 87.6%. In data set [9], the inhibition entry was “Active”. Besides, in [10], the viability at 48 h, 50 µM is 87.9%.
Regarding `C[C@@H](NC(=O)OCC(Cl)(Cl)Cl)c1nc2ccc(F)cc2s1`, the IC50 at Cholinesterase came to 8.31 µM; against Acetylcholinesterase [2], 92.2 µM. In [1], the logP at 0.25 h stood at 2.34. Also, in data set [3], the Ratio IC50 was found to be 11.1.
For `C[C@@H](NC(=O)OCCBr)c1nc2ccc(F)cc2s1`, the results for the concentration for half-maximal inhibition (IC50) on Cholinesterase and on Acetylcholinesterase [2] were 38.4 µM and 11.4 µM, respectively. In addition, the logP at 0.25 h in [1] stood at 3.17. The Ratio IC50 in data set [3] amounted to 0.3.
Take `CC(C)OC(=O)N[C@H](C)c1nc2ccc(F)cc2s1`: the figures for the IC50 on Cholinesterase and at Acetylcholinesterase [2] were 32.7 µM and 16.5 µM, respectively. In data set [1], the logP at 0.25 h amounted to 5.33. For the same compound, the Ratio IC50 in data set [3] came out at 0.51.
On to `CCCCOC(=O)N[C@H](C)c1nc2ccc(F)cc2s1`, for which, in [4], the viability at 48 h, 100 µM came to 66.8%. Further, the IC50 at Cholinesterase was 40.9 µM; against Acetylcholinesterase [2], 9.26 µM. Moreover, the Activity entry is on record as “Non-toxic” in the data set with SK-BR-3 [11] and “tde” with SK-BR-3 [12]. Besides, the logP at 0.25 h in data set [1] was found to be 4.82. Further, in [5], the viability at 48 h, 250 µM was 49.5%. Besides, the viability at 48 h, 1 µM in [6] was 90.3%. For the same compound, the Ratio IC50 was less than 10 in [7] and 0.23 in [3]. Besides, in [8], the viability at 48 h, 10 µM turned out to be 80.2%. Moreover, the viability at 48 h, 50 µM in [10] came out at 88.7%.
`C[C@@H](NC(=O)OCC(F)(F)C(F)F)c1nc2ccc(F)cc2s1`: the viability at 48 h, 100 µM in data set [4] is 82.9%. The IC50 against Cholinesterase amounted to 25 µM; on Acetylcholinesterase [2] it was 6.75 µM. For the same compound, the Activity entry in the data set with SK-BR-3 [11] is “Non-toxic”; in the data set on SK-BR-3 [14], “Toxic”. Besides, in data set [1], the logP at 0.25 h came to 2.92. Moreover, the viability at 48 h, 250 µM in data set [5] turned out to be 80.3%. Moreover, the viability at 48 h, 1 µM in [6] is 93%. In addition, the Ratio IC50 in [7] was less than 10; in data set [3], 0.27. The viability at 48 h, 10 µM in [8] was found to be 85.3%. Further, the inhibition entry in [13] is “Active”. Also, the viability at 48 h, 50 µM in data set [10] was 89.3%.
In the case of `COC(=O)N[C@H](C)c1nc2ccc(F)cc2s1`, the IC50 against Cholinesterase was 90.3 µM; at Acetylcholinesterase [2] it was 13.6 µM. This compound also had a logP at 0.25 h in data set [1] of 2.5. Besides, the Ratio IC50 in data set [3] was 0.15.
The matching figures for `C[C@@H](NC(=O)OCCCl)c1nc2ccc(F)cc2s1`: 41.2 µM, 12.7 µM, 3.09 and 0.31.
In the case of `C[C@@H](NC(=O)OCC(F)(F)F)c1nc2ccc(F)cc2s1`, the figures for the IC50 on Cholinesterase and against Acetylcholinesterase [2] were 63.4 µM and 40.5 µM, respectively. The compound further had a logP at 0.25 h in data set [1] of 2.69. In addition, the Ratio IC50 in data set [3] came to 0.64.
With `C[C@@H](NC(=O)OCC(F)(F)C(F)(F)C(F)(F)F)c1nc2ccc(F)cc2s1`, the IC50 at Cholinesterase was 74.5 µM; on Acetylcholinesterase [2] it was 81.9 µM. The logP at 0.25 h in data set [1] was 3.2. Also, in data set [3], the Ratio IC50 amounted to 1.1.
Turning to `C[C@@H](NC(=O)OCC(F)(F)Cl)c1nc2ccc(F)cc2s1`, the inhibition result in [15] is “Active”. In [4], the viability at 48 h, 100 µM was determined as 85.7%. The values for the IC50 against Cholinesterase and at Acetylcholinesterase [2] were 25.6 µM and 8.14 µM, respectively. The compound further displayed a logP at 0.25 h in data set [1] of 2.82. The viability at 48 h, 250 µM in [5] amounted to 74%. Also, the viability at 48 h, 1 µM in [6] stood at 91.1%. For the same compound, the Ratio IC50 in data set [7] is less than 10; in data set [3], 0.32. The viability at 48 h, 10 µM in data set [8] was 86.6%. Also, the viability at 48 h, 50 µM in data set [10] was 89.6%.
For the compound `CCN(C)C(=O)Oc1cccc([C@H](C)N(C)C)c1` [RIVASTIGMINE], the Ki at Acetylcholinesterase [16] amounted to 0.033 M⁻¹ s⁻¹.
In the case of `C[C@@H](NC(=O)OCCCCl)c1nc2ccc(F)cc2s1`, the IC50 against Cholinesterase was 38.8 µM; against Acetylcholinesterase [2], 80.5 µM. This compound also displayed a logP at 0.25 h in [1] of 1.92. The Ratio IC50 in [3] came to 2.07.
For `CC(C)COC(=O)N[C@H](C)c1nc2ccc(F)cc2s1`, in that order: 40.2 µM, 12.9 µM, 4.24 and 0.32.
For `C[C@@H](NC(=O)OC(C)(C)C)c1nc2ccc(F)cc2s1`, the IC50 against Cholinesterase came out at 23.1 µM; on Acetylcholinesterase [2], 10.5 µM. The logP at 0.25 h in data set [1] was found to be 4.41. For the same compound, the Ratio IC50 in [3] amounted to 0.46.

One may read the IC50 as the concentration needed to halve the response being measured. A lower IC50 goes with greater potency. In general, logP refers to a log measure of how a compound divides between an organic and an aqueous phase. High values mean a more lipophilic compound, low ones a more hydrophilic compound.
